According to patent publication US20130164325A1, “CERAMIDE-LIKE GLYCOLIPID-ASSOCIATED BACTERIAL VACCINES AND USES THEREOF” (Albert Einstein College of Medicine of Yeshiva University, priority 2010, published 2013):

System: mouse splenocytes
Assay: Activation of mouse splenocytes with glycolipid-treated BMDCs, IFNγ production
Type: cell-based
Conditions: free glycolipid, compared to vehicle control (FIG. 5B)

Compound: CCCCCCCCCCCCCCCCCCCCCCCCCC(=O)N[C@@H](CO[C@H]1O[C@H](CO)[C@H](O)[C@H](O)[C@H]1O)[C@H](O)[C@H](O)CCCCCCCCCCCCCC [KRN7000, (2S,3S,4R)-1-O-(α-D-galactopyranosyl)-N-hexacosanoyl-2-amino-1,3,4-octadecanetriol]
- IFNγ production: induced IFNγ production
